# Tested on: Multiple myeloma patients
# Experiment: ^166Ho-DOTMP plus melphalan with or without TBI and stem cell transplant, Phase I/II (Examples 7, 11, 13)
# Format: in vivo, human
# Procedure: Multiple myeloma patients (≦65 yrs. of age) that have responded to initial chemotherapy or have primary refractory disease or chemotherapy responsive relapse, but who are not in refractory relapse are treated. Patients are well hydrated with fluids during the day prior to the diagnostic dose. An initial diagnostic dose of 30 mCi of ^166Ho-DOTMP is administered to confirm the selective localization to the skeleton, establish the in-vivo pharmacokinetics and provide radiation dosimetry estimates for the red marrow. Assuming >15% of the ^166Ho-DOTMP accumulates in bone following the injection, the amount of ^166Ho-DOTMP required for therapy is calculated based on delivering a specified radiation absorbed dose to the marrow. Patients receive the therapeutic dose by intravenous injection over 5-10 minutes, given over 1-3 days >48 hrs after the dosometry (test) dose.
# The time line for conducting the investigation is as follows: Test dose ^166Ho-DOTMP (30 mCi); ^166Ho scan image (0, 4-6, 20-24 hr.); Blood samples for dosimetry (10, 30 min, 1, 2, 6, 20-24 hr.); Urine samples (0-6, 6-12, 12-24, 24-48 hr.); and External whole body probe (0, 2, 6, 24 and 48 hr.).
# Melphalan is administered 48 hr prior to the predicted PBSC infusion based upon dosimetry assessment from the test dose. PBSC infusion is administered when bone marrow dose from ^166Ho is ≦1 cGy/hr. Patients were treated at 20, 30, 40 and prospectively 50 Gy, and with 140 mg/m^2 and 200 mg/m^2 melphalan.
# The MTD was defined as the level that is associated with a true toxicity rate of 20%, where toxicity for these purposes was taken to be grade 3 or greater extramedullary drug related toxicity.
# All toxicities encountered during the study will be evaluated according to Bearman criteria (Bearman et al., J Clin Oncol, 6,1562, (1988)). Graft failure is considered a grade 3 toxicity. Graft failure is defined as failure to recover granulocytes to 0.5×10^9/l or platelets 20×10^9/l within 28 days of transplant or a fall to less than these levels for 3 or more consecutive days after day 28 without other apparent cause. Hematopoietic recovery (engraftment) is defined as having a sustained granulocyte count of 0.5×10^9/l for two consecutive counts post transplant and a platelet count 20×10^9/l for seven consecutive counts post transplant, without transfusion support. The first of two counts for the granulocyte count and the first of seven counts for the platelet count are considered the day of engraftment.
# Patients undergo blood stem cell infusion at the time when ongoing radiation to the marrow falls to <1 rad/hr, and at least 24 hours after melphalan infusion. The total volume of stored cells is infused into a free flowing IV line primed with normal saline. Patients are premedicated with acetaminophen 650 mg PO and diphenhydramine 50 mg PO or IV. All patients receive conventional supportive care for autologous/syngeneic blood and marrow transplantation, (such as allopurinol, menstrual suppression, prophylactic antibiotics, empiric antibiotics, IV Ig, transfusions of blood products, hyperalimentation, and the like).
# Patients, afflicted with multiple myeloma, were treated according to the method of the present invention. The dosage range of radiation from the complex was 460 mCi to 4.5 Ci.
# Fifty-three patients received intravenous hydration only, while 30 patients received both IV hydration and continuous bladder irrigation.
# In order to achieve a complete response using protocol criteria, a patient must have a complete absence of any myeloma protein in the blood/urine and marrow post treatment. The patient must have normal bone marrow with complete resolution of plasmocytomas and no increase in bone lesions. To meet international standards, this must be maintained for 6 weeks. While response rates to a conventional high dose therapy vary widely, in general for previously treated patients, there is a range of 5-25% CR rate. […]
# [1] = 140 mg/m^2 melphalan w/ TBI, 20 Gy to marrow
# [2] = 140 mg/m^2 melphalan w/ TBI, 30 Gy to marrow
# [3] = 140 mg/m^2 melphalan w/ TBI, 40 Gy to marrow
# [4] = 140 mg/m^2 melphalan w/o TBI, 20 Gy to marrow
# [5] = 140 mg/m^2 melphalan w/o TBI, 30 Gy to marrow
# [6] = 140 mg/m^2 melphalan w/o TBI, 40 Gy to marrow
# [7] = 200 mg/m^2 melphalan w/o TBI, 20 Gy to marrow
# [8] = 200 mg/m^2 melphalan w/o TBI, 30 Gy to marrow
# [9] = 200 mg/m^2 melphalan w/o TBI, 40 Gy to marrow
# [10] = 40 patients who received 200 mg/m^2 melphalan and were not in CR at treatment
# [11] = nine patients, 750+/−10% mCi/m^2
# [12] = nine patients, dose 750 mCi/m^2 (±10%)
# [13] = patients who received more than 1500 mCi
# [14] = patients who received ≦1500 mCi
# [15] = ≦30 Gy marrow dose, 35 evaluable patients
compound,measurement,setting,value
O=P([O-])(O)CN1CCN(CP(=O)(O)O)CCN(CP(=O)([O-])O)CCN(CP(=O)(O)O)CC1.[166Ho] [^166Ho-DOTMP],Days to ANC > 500,[1],9 days
same,"Days to Platelets > 20,000",[1],12 days
same,Number of Patients w/ Grade 3 Toxicity,[1],0/8
same,Days to ANC > 500,[2],11 days
same,"Days to Platelets > 20,000",[2],12 days
same,Number of Patients w/ Grade 3 Toxicity,[2],1/8
same,Days to ANC > 500,[3],9 days
same,"Days to Platelets > 20,000",[3],13 days
same,Number of Patients w/ Grade 3 Toxicity,[3],0/20
same,Complete Response,"140 mg/m^2 melphalan w/ TBI, all marrow doses",7/17
same,Days to ANC > 500,[4],10 days
same,"Days to Platelets > 20,000",[4],10 days
same,Number of Patients w/ Grade 3 Toxicity,[4],0/5
same,Days to ANC > 500,[5],16 days
same,"Days to Platelets > 20,000",[5],10 days
same,Number of Patients w/ Grade 3 Toxicity,[5],0/4
same,Days to ANC > 500,[6],12 days
same,"Days to Platelets > 20,000",[6],10 days
same,Number of Patients w/ Grade 3 Toxicity,[6],0/7
same,Complete Response,"140 mg/m^2 melphalan w/o TBI, all marrow doses",3/14
same,patients alive,"200 mg/m^2 melphalan patients, mean follow-up time 39.4 months",Sixty-one
same,Days to ANC > 500,[7],10 days
same,"Days to Platelets > 20,000",[7],11 days
same,Number of Patients w/ Grade 3 Toxicity,[7],0/4
same,Days to ANC > 500,[8],12 days
same,"Days to Platelets > 20,000",[8],10 days
same,Number of Patients w/ Grade 3 Toxicity,[8],0/7
same,Days to ANC > 500,[9],10.5 days
same,"Days to Platelets > 20,000",[9],10 days
same,Number of Patients w/ Grade 3 Toxicity,[9],0/14
same,Complete Response,"200 mg/m^2 melphalan w/o TBI, all marrow doses",8/9
same,complete remission,[10],39%
same,partial response,[10],32%
same,patients who developed grade 3-4 renal toxicity,83 patients,Twenty-five
same,symptoms of long-term kidney dysfunction,"83 patients, 5-12 months post-therapy",40%
same,patient deaths,"Phase I/II studies, to date",21
same,complete response rate,"across all ^166Ho-DOTMP/melphalan±TBI doses, 77 patients with response data",35%
same,patients with a partial response,"across all doses, 77 patients with response data",Twenty-four
same,Grade 1-3 hemorrhagic cystitis (HC) observed,all patients,24 patients
same,patients who developed TTP/HUS,all treated at 40 Gy or higher to the marrow,Seven
same,cases of Grade 3-4 renal toxicities,[11],no cases of Grade 3-4 renal toxicities
same,cases of TTP/HUS,[11],no cases of TTP/HUS
same,2-year survival,[12],100%
same,CR rate,[12],44.4%
same,"Grade 1-3 hemorrhagic cystitis (HC), patients treated without continuous bladder irrigation (CBI)",of the 24 patients with HC,22 patients
same,cases of TTP and Grade 3 or high renal toxicity,patients administered less than 1500 mCi,no reported cases
same,cases of TTP/HUS,"patients treated at doses, 675 mCi/m^2",no cases of TTP/HUS occurred
same,incidence of sustained renal dysfunction,patients who received less than 1500 mCi,23%
same,CR rate,[13],36%
same,Two-year survival,[13],67%
same,CR rate,[14],32%
same,Two-year survival,[14],77%
same,patients with renal dysfunction not related to TTP/HUS or progressive myeloma,serum creatinine >2 mg/dL twice or >3 mg/dL once,nine
same,tolerability,with melphalan at 200 mg/m^2,well tolerated
same,survival of 12 months,≦30 Gy marrow dose,100%
same,Complete Response,[15],30%
same,partial response,[15],32%
same,progressive disease,[15],None
same,stable disease,[15],32%
